Experimental data taken from ChEMBL document CHEMBL1201862, “PubChem BioAssay data set” (2004).
“And” between values parts separate entries of the source, which are not always exact repeats. Equal values may be shown once. The source made the active and inactive calls.

Columns and labels:
[1] = target: Cytochrome P450 2D6 (Homo sapiens, UniProt P10635);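 further: CYP2D6 member of a cytochrome P450 panel assay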
[2] = target: T1, Heat shock factor protein 1 (Mus musculus, UniProt P38532); experiment: HSF1 potentiators in luciferase reporter cells, confirmation, cell-based, NIH3T3, luminescence, dose retest (AID 435004); assay type: functional;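 further: stress induced by proteasome inhibitor MG132 added 30 min after compound; luciferase reporter driven by HSF1 response element in NIH3T3 cells; actives raise luminescence as potentiators of the MG132 stress response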
T1 sequence (P38532 whole entry): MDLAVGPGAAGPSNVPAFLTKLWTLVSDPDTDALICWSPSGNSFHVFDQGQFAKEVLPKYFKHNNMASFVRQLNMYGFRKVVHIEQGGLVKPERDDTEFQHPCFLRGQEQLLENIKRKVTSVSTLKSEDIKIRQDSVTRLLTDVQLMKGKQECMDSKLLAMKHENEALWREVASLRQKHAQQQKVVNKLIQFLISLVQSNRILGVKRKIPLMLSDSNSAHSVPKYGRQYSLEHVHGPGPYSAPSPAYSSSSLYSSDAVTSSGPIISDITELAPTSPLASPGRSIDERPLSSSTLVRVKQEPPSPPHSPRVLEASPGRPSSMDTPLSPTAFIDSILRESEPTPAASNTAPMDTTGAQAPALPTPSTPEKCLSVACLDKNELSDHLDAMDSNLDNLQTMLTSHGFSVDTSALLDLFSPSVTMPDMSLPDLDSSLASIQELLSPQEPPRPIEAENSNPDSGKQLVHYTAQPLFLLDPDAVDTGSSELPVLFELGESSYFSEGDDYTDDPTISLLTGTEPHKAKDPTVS

[3] = target: Cytochrome P450 3A4 (Homo sapiens, UniProt P08684);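 further: CYP3A4 tested as one member of a cytochrome P450 panel screen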
Chain of Cytochrome P450 3A4 (P08684 whole entry): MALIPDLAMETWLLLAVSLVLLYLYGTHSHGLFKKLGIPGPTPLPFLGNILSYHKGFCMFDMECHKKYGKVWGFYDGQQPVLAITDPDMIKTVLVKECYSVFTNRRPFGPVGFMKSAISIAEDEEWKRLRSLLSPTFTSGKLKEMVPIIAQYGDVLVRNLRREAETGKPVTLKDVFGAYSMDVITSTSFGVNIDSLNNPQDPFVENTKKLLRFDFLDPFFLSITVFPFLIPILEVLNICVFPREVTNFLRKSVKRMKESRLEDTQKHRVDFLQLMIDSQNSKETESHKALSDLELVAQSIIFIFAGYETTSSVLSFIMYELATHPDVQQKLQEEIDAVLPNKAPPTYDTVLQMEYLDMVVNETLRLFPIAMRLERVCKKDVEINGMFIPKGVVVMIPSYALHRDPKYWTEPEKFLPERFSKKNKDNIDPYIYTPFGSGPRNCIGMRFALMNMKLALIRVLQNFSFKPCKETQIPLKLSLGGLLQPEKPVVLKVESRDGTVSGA

[4] = target: Cytochrome P450 2C9 (Homo sapiens, UniProt P11712)
Chain of Cytochrome P450 2C9 (P11712 whole entry): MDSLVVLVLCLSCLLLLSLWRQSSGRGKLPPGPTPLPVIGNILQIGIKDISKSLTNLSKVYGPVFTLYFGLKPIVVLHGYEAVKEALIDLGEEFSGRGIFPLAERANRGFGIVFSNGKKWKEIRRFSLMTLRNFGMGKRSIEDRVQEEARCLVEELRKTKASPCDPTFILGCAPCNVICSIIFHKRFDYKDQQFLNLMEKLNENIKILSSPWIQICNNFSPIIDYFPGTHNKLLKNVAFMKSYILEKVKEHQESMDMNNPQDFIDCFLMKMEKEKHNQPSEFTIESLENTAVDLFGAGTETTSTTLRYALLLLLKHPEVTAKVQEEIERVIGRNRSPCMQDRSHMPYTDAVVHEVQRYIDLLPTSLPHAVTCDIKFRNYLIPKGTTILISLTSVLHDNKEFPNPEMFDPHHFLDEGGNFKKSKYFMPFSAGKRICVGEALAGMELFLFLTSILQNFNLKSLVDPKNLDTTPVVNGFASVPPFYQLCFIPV

[5] = target: T2, Cytochrome P450 1A2 (Homo sapiens, UniProt P05177);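 further: PubChem cytochrome P450 panel assay, CYP1A2 panel member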
T2 sequence (P05177 whole entry): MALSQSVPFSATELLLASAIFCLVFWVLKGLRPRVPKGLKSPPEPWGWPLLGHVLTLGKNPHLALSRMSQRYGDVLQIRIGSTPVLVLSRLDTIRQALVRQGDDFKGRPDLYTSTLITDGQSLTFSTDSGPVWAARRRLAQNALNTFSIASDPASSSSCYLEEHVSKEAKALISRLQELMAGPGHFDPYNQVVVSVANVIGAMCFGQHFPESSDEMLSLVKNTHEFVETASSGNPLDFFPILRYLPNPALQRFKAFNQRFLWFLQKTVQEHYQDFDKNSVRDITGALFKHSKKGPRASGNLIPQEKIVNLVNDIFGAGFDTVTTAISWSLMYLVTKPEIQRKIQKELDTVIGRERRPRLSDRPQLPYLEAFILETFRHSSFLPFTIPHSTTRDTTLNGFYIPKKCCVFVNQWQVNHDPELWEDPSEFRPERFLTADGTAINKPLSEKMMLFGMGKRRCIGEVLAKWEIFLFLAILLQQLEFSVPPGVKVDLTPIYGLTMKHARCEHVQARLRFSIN

[6] = Luminescence Cell-Based Dose Confirmation HTS to Identify Inhibitors of Platelet Dense Granule Release. [Related pubchem assays: 1663 (Primary HTS), 1678 (Summary of Project)]; assay type: functional
[7] = target: Luciferin 4-monooxygenase (Photinus pyralis, UniProt P08659); experiment: firefly luciferase enzyme inhibitors, dose response, biochemical, luminescence (AID 1891)
Chain of Luciferin 4-monooxygenase (P08659 whole entry): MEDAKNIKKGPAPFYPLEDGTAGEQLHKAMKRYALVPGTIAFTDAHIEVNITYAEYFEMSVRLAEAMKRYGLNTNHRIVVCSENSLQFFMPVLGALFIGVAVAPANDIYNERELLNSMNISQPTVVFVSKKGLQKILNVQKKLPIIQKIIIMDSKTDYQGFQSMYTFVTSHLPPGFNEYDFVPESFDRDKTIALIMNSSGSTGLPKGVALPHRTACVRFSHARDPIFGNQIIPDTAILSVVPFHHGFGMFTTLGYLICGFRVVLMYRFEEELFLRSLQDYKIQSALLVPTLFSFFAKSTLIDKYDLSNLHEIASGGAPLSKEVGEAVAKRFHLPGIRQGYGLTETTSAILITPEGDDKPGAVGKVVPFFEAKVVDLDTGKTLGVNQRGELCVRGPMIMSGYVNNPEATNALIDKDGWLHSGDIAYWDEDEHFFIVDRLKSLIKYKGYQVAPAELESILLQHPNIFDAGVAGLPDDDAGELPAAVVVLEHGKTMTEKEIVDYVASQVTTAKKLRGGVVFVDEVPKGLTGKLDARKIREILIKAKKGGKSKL

[8] = Luminescence Cell-Based Dose Retest to Confirm Inhibitors of Cancer Stem Cells. [Related pubchem assays (depositor defined):AID2717, AID2721]; assay type: functional; details: Homo sapiens
[9] = Luminescence Cell-Based Dose Response HTS to Identify Inhibitors of 5'UTR Stem-Loop Driven Prion Protein mRNA Translation in H4 Neuroglioblastoma Cells. [Related pubchem assays: 1827 (Project Summary), 1813 (Primary HTS)]; assay type: functional
[10] = inhibitors of SNCA 5'UTR-driven reporter translation, confirmation, H4 neuroglioma cells, luminescence (AID 1988); assay type: functional, cell-based
[11] = inhibitors of firefly luciferase expression or activity, dose response, H4 neuroglioma cells, luminescence (AID 1990); assay type: functional, cell-based
[12] = cytotoxicity toward NIH3T3 fibroblasts, dose response, counter-screen, cell-based, ATP luminescence, mouse fibroblasts (AID 2010); assay type: functional;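 further: cells exposed to compound for about 90 hours before reading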
[13] = inhibitors of intracellular T. cruzi replication, confirmation, NIH3T3 host cells, beta-gal luminescence (AID 2044); assay type: functional, cell-based;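 further: intracellular parasites grown in NIH/3T3 mouse fibroblasts as host cells; luminescent beta-galactosidase reporter signal from transgenic T. cruzi replicating inside host cells; inhibitors lower the luminescence signal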
[14] = target: Cytochrome P450 2C19 (Homo sapiens, UniProt P33261); experiment: Cytochrome panel assay with activity outcomes. Panel member name: p450-cyp2c19 Compounds with AC50 equal or less than 10 uM are considered active; assay type: functional; details: read-out: AC50
Chain of Cytochrome P450 2C19 (P33261 whole entry): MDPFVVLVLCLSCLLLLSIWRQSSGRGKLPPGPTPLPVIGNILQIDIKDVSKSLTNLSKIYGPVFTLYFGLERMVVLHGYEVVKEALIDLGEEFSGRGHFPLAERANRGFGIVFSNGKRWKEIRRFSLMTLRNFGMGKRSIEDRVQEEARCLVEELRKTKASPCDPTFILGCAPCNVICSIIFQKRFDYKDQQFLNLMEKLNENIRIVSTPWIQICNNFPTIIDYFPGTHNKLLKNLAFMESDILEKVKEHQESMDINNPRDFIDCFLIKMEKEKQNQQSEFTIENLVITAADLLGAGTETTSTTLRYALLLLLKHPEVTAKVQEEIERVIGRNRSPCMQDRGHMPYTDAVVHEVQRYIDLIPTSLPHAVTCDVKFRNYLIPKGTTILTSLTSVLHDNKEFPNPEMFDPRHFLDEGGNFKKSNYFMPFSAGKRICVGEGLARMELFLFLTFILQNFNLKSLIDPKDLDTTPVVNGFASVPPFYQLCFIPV

[15] = tested on: Streptococcus; experiment: Group A Streptococcus viability loss, dose response, counter-screen for streptokinase expression inhibitor project, luminescence, BacTiterGlo (AID 1915); assay type: functional, organism-based;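 further: potency for reduction of bacterial viability or growth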
[16] = tested on: Streptococcus sp. 'group A'; experiment: growth inhibition of control SK(-) GAS strain, dose response, counter-screen for streptokinase expression inhibitor project, luminescence, kanamycin, BacTiterGlo, confirmation (AID 1900); assay type: functional, organism-based

Chain of Cytochrome P450 2D6 (P10635 whole entry): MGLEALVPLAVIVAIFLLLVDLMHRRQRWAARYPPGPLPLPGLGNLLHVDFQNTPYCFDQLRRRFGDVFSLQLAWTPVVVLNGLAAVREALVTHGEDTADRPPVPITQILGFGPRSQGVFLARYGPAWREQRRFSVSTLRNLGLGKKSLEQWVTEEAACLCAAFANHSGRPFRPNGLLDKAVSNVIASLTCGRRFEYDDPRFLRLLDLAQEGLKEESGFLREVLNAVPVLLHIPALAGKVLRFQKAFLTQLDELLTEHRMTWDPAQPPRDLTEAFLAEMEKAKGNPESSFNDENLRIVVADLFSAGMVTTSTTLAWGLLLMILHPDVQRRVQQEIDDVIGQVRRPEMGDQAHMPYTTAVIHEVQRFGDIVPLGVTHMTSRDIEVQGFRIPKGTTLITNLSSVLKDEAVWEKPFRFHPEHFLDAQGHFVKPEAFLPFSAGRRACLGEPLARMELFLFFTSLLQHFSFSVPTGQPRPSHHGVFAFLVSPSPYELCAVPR

In the case of C[C@@H](C(=O)Nc1ccc2ccccc2c1)[C@@H]1C[C@@]1(C)[C@@H](NC(=O)OCc1ccccc1)c1ccccc1, the AC50 [1] is reported as 12.6 µM (inconclusive).

For C/C(N)=C(/C#N)C(=O)CSc1nnc(-c2ccc3c(c2)OCO3)o1, the EC50 [2] was > 260 µM (inactive).

In the case of CN(C)C(=O)c1ccc(-c2ccc3ncnc(Nc4ccccc4)c3c2)cc1, the AC50 [3] is reported as 7.94 µM (inconclusive) and the AC50 [1] is reported as 12.6 µM (inconclusive).

For COc1ccc(C(C[N+](=O)[O-])C2(c3ccc(OC)c(OC)c3)C(=O)c3ccccc3C2=O)cc1 (centres undefined), the EC50 [2] was 13.3 µM (active).

For COc1cccc(Cn2c(=O)cnc3cnc(N4CCN(C)CC4)nc32)c1, the AC50 [4] was 25.1 µM (inconclusive), the AC50 [5] was 25.1 µM (inconclusive) and the AC50 [1] was 20 µM (inconclusive).

For COc1ccc(N(CC(=O)N2CCc3ccccc32)S(=O)(=O)c2c(C)noc2C)cc1, the EC50 [2] was 56.1 µM (active).

In the case of COC(=O)C1=C(C)N=C2SCCC(=O)N2C1c1ccc(OC(=O)c2ccco2)cc1 (centres undefined), the EC50 [6] is reported as > 112 µM (not active) and the EC50 [7] is reported as > 112 µM (not active).

For COc1cccc(Oc2c(C)oc3c(CN4CCCCC4)c(O)ccc3c2=O)c1, the EC50 [6] was 19.2 µM (active) and the EC50 [7] was > 112 µM (not active).

In the case of O=C(N/C(=C/c1cccs1)c1nc2ccccc2[nH]1)c1ccccc1, the AC50 [4] is reported as 7.94 µM (inconclusive), the AC50 [5] is reported as 25.1 µM (inconclusive) and the AC50 [1] is reported as 28.2 µM (inconclusive).

With O=C(NCCc1ccccc1)N1c2ccccc2Sc2ccccc21 the EC50 [2] was > 260 µM (inactive).

With Cc1ccccc1C(=O)N/N=C/c1ccncc1 the AC50 [1] was 22.4 µM (inconclusive).

In the case of COC(=O)c1ccc(CSc2nnnn2-c2ccc(C)cc2C)o1, the EC50 [2] is reported as > 260 µM (inactive).

With COC(=O)[C@@]1(Cc2ccc(F)cc2)[C@H]2c3cc(C(=O)N(C)C)n(Cc4ccc(O)c(OC)c4)c3C[C@H]2CN1C(=O)c1ccccc1 the AC50 [5] was 25.1 µM (inconclusive) and the AC50 [1] was 20 µM (inconclusive).

In the case of C/C(NNc1ccccc1)=C1/C(=O)NC(=O)N(Cc2ccccc2)C1=O, the AC50 [8] is reported as 1.03 µM (active).

With O=S(=O)(Nc1nc2ccccc2nc1N1CCN(c2ccccc2F)CC1)c1ccc(Cl)cc1 the AC50 [8] was 4.82 µM (active).

For COc1ccccc1CNc1ccnc(-c2cccc(NS(C)(=O)=O)c2)n1, the AC50 [1] was 39.8 µM (inconclusive).

With CC(C)n1nc(C(=O)Nc2ccccc2N2CCOCC2)c2ccccc2c1=O the EC50 [6] was 26.7 µM (active) and the EC50 [7] was > 112 µM (not active).

In the case of CCCCc1ccc(NC(=O)Nc2cc(C)nn2C)cc1, the AC50 [8] is reported as 3.31 µM (active).

For Cc1ccc(C(c2c(C)nn(-c3ccccc3)c2N)c2c(C)nn(-c3ccccc3)c2N)cc1, the EC50 [2] was > 260 µM (inactive).

For O=C(Nc1ccc(Cl)cn1)c1ccc(-c2ccc(Cl)c(Cl)c2)o1, the EC50 [6] was > 112 µM (not active) and the EC50 [7] was > 112 µM (not active).

With Cc1ccc(CN(C(=O)c2csnn2)C(C(=O)NC2CCCC2)c2ccc(C)o2)cc1 (centres undefined) the EC50 [6] was > 112 µM (not active) and the EC50 [7] was 67.6 µM (active).

With CCOc1ccc(/C=N/NC(=O)COc2ccccc2-c2ccccc2)cc1 the AC50 [8] was 4.37 µM (active).

With O=C(COc1ccc(Cl)cc1)Nc1ccc(Cc2ccncc2)cc1 the EC50 [6] was > 112 µM (not active) and the EC50 [7] was > 112 µM (not active).

In the case of COc1ccc(-c2coc3cc4oc(=O)c(CC(=O)O)c(C)c4cc23)cc1, the EC50 [2] is reported as > 260 µM (inactive).

For Cc1nn(C)c(Oc2ccccc2)c1CCNS(=O)(=O)c1ccc(Cl)cc1, the EC50 [2] was > 260 µM (inactive).

For CCC(C)C1NC(=S)N(C2CCCCC2)C1=O (centres undefined), the EC50 [9] was > 120 µM (not active), the EC50 [10] was > 120 µM (not active) and the EC50 [11] was > 120 µM (not active). The AC50 [3] was 17.8 µM (inconclusive).

In the case of O=[N+]([O-])c1ccc(N/N=C/c2c[nH]c3ccccc23)c(S(=O)(=O)Nc2ccc(Cl)cc2)c1, the AC50 [8] is reported as 1.15 µM (active).

For COCCNC(=O)/C(C#N)=C/c1ccc(OC(=O)c2cccs2)c(OC)c1, the EC50 [2] was > 260 µM (inactive).

With C/C(Cn1cnc([N+](=O)[O-])n1)=N\NC(=O)c1ccccc1F the EC50 [2] was > 260 µM (inactive), the EC50 [12] was > 60 µM (not active) and the EC50 [13] was 1.25 µM (active).

With COc1ccc(C(=O)N2CCC3(CC2)CN(c2ccc(-c4ccccc4)cc2)C3)cc1 the AC50 [1] was 15.8 µM (inconclusive).

In the case of Cn1ccc2cc3c(cc21)CCN3C(=O)Nc1cccnc1, the AC50 [1] is reported as 31.6 µM (inconclusive) and 20 µM (inconclusive).

In the case of Cc1nc(N2CCC(C)CC2)c2c(C)c(C(=O)Nc3cccc(C(F)(F)F)c3)sc2n1, the EC50 [2] is reported as > 260 µM (inactive).

With CCC(=O)Nc1cccc(C(=O)/C=C/c2ccc(F)cc2)c1 the EC50 [2] was 11.6 µM (active).

With COc1cc2c(cc1OC)-c1cc(NC3CCCCC3)nc(=O)n1CC2 the EC50 [6] was 2.24 µM (active), the EC50 [7] was > 112 µM (not active) and the EC50 [9] was > 120 µM (not active). The EC50 [10] was 33.2 µM (active) and the EC50 [11] was 20 µM (active).

For COC(=O)c1cccc([N+](=O)[O-])c1CN1CCCC(C(N)=O)C1 (centres undefined), the EC50 [6] was > 112 µM (not active) and the EC50 [7] was > 112 µM (not active).

With O=[N+]([O-])c1cc([N+](=O)[O-])c(Oc2c(F)cccc2F)cc1NN1CCCCC1 the EC50 [2] was > 260 µM (inactive).

For CCC(C)(C)NC(=O)C(c1ccc(C)cc1)N(Cc1cccs1)C(=O)c1ccc2c(c1)OCCO2 (centres undefined), the EC50 [2] was > 260 µM (inactive).

In the case of CCS(=O)(=O)c1ccc2oc(Nc3ccccc3Cl)nc2c1, the EC50 [6] is reported as 7.7 µM (active) and the EC50 [7] is reported as 1.75 µM (active).

For CCOCCn1c(CN(Cc2ccccc2)Cc2ccccc2)nc2c1c(=O)[nH]c(=O)n2C, the AC50 [14] was 17.8 µM (inconclusive) and the AC50 [1] was 39.8 µM (inconclusive).

For COC(=O)[C@@]1(Cc2ccccc2)[C@H]2c3cc(C(=O)N4CCCC4)n(Cc4ccsc4Br)c3C[C@H]2CN1C(=O)c1ccccc1, the AC50 [1] was 12.6 µM (inconclusive).

In the case of CN(C)/C=C(\C=N\OCc1ccc(Cl)cc1Cl)C(=O)Nc1ccc(Cl)c(Cl)c1, the EC50 [15] is reported as 3.07 µM (active), the AC50 [8] is reported as 1.5 µM (active) and the EC50 [16] is reported as 0.618 µM (active).

For CC(C)NC[C@H]1CCc2cc(CO)c([N+](=O)[O-])cc2N1, the AC50 [5] was 10 µM (inconclusive) and the AC50 [1] was 6.31 µM (inconclusive).

With Cc1oc(CC(C)C)cc1C(=O)Nc1cccc2ccccc12 the AC50 [8] was 5 µM (active).

With CC(C)CN(C(=O)c1cccs1)C1CCS(=O)(=O)C1 (centres undefined) the EC50 [2] was > 260 µM (inactive).

With O=C(NC1CCCCC1)C(Cc1ccccc1)N1C(=O)C2C3CCC(C3)C2C1=O (centres undefined) the AC50 [4] was 0.1 µM (inconclusive) and the AC50 [1] was 31.6 µM (inconclusive).

For COC(=O)[C@@]1(Cc2ccccc2)[C@H]2c3cc(C(=O)N4CCCC4)n(Cc4ccc(O)c(OC)c4)c3C[C@H]2CN1C(=O)c1ccccc1, the AC50 [5] was 25.1 µM (inconclusive) and the AC50 [1] was 20 µM (inconclusive).

With ClC(Cl)c1nnc(-c2ccccc2)c(-c2c[nH]c3ccccc23)n1 the EC50 [2] was 81.5 µM (active).

In the case of COC(=O)c1c(NC(=O)/C=C/c2ccc3c(c2)OCO3)sc(C)c1C, the AC50 [8] is reported as 4.17 µM (active).

In the case of Cc1nn(C(C)C(=O)N2CCc3ccccc3C2)c(=O)c2cc3occc3n12 (centres undefined), the EC50 [6] is reported as > 112 µM (not active) and the EC50 [7] is reported as > 112 µM (not active).
